{
  "source": "patent US10501575B2",
  "about": "“Biomimetic fluoroscopic films” (THE BOARD OF REGENTS OF THE UNIVERSITY OF TEXAS SYSTEM, priority 2015, dated 2019)",
  "key": {"TNF-α": {"tested_on": "TNF-α", "test": "Anti-inflammatory effect, TNF-α ELISA in LPS stimulated RAW 264.7 cells", "format": "cell-based, mouse", "conditions": "for Cytokine Concentration TNF-α: LPS, 24 h", "source_text": "(§1) Therapeutic effect. […] PTNP concentrations were compared to free dexamethasone in media, which simulates systemic delivery. The experimental design included the expected concentrations of dexamethasone released from PTNP groups."}, "IL-1β": {"tested_on": "IL-1β", "test": "Anti-inflammatory effect, IL-1β ELISA in LPS stimulated RAW 264.7 cells", "format": "cell-based, mouse", "conditions": "for Cytokine Concentration IL-1β: LPS, 24 h", "source_text": "as §1"}},
  "data": [
    {"smiles": "C[C@@H]1C[C@H]2[C@@H]3CCC4=CC(=O)C=C[C@]4(C)[C@@]3(F)[C@@H](O)C[C@]2(C)[C@@]1(O)C(=O)CO", "note": "[Free DEX, dexamethasone]", "values": [
      {"measurement": "concentration required to maintain TNF-α control concentration levels in the presence of stimuli", "setting": "TNF-α; ELISA", "result": 0.23, "unit": "mg/mL"},
      {"measurement": "Cytokine Concentration TNF-α", "setting": "TNF-α; Free DEX 0.10 mg/mL", "result": "78 ± 3", "unit": "pg/mL"},
      {"measurement": "Cytokine Concentration TNF-α", "setting": "TNF-α; Free DEX 0.50 mg/mL", "result": "66 ± 3", "unit": "pg/mL"},
      {"measurement": "Cytokine Concentration TNF-α", "setting": "TNF-α; Free DEX 1.00 mg/mL", "result": "50 ± 3", "unit": "pg/mL"},
      {"measurement": "Cytokine Concentration TNF-α", "setting": "TNF-α; Free DEX 2.00 mg/mL", "result": "35 ± 6", "unit": "pg/mL"},
      {"measurement": "TNF-α versus control", "setting": "TNF-α; free dexamethasone 0.10-0.50 mg/mL", "result": "lowered TNF-α but not enough to be comparable to the control"},
      {"measurement": "TNF-α concentrations versus control", "setting": "TNF-α; free dexamethasone in media 1 and 2 mg/mL", "result": "lowered TNF-α concentrations to control levels"},
      {"measurement": "concentration required to maintain IL-1β control concentration levels in the presence of stimuli", "setting": "IL-1β; ELISA", "result": 0.23, "unit": "mg/mL"},
      {"measurement": "Cytokine Concentration IL-1β", "setting": "IL-1β; Free DEX 0.10 mg/mL", "result": "1009 ± 7", "unit": "pg/mL"},
      {"measurement": "Cytokine Concentration IL-1β", "setting": "IL-1β; Free DEX 0.50 mg/mL", "result": "759 ± 7", "unit": "pg/mL"},
      {"measurement": "Cytokine Concentration IL-1β", "setting": "IL-1β; Free DEX 1.00 mg/mL", "result": "491 ± 2", "unit": "pg/mL"},
      {"measurement": "Cytokine Concentration IL-1β", "setting": "IL-1β; Free DEX 2.00 mg/mL", "result": "489 ± 4", "unit": "pg/mL"}
    ]}
  ]
}
